Data published in publication PMC6052247, “Structurally Diverse Polyketides From the Mangrove-Derived Fungus Diaporthe sp. SCSIO 41011 With Their Anti-influenza A Virus Activities” (Frontiers in Chemistry, 2018).

Test system: A/Puerto Rico/8/34 H274Y (H1N1)
Format: cell-based, Influenza A virus

Molecule	IC50
5-chloroisorotiorin	2520 ± 210 nM
CCCCCc1cc(=O)c2c(CC(=O)OC)cc(O)cc2o1 [Compound 14, pestalotiopsone F]	21800 ± 7960 nM
CCCCCCCc1cc(=O)c2c(CC(=O)OCC)cc(O)cc2o1 [Compound 15, pestalotiopsone B]	2560 ± 320 nM
